Laboratory results: patent publication US12415145B2, “Compositions that contain lipophilic plant material and surfactant, and related methods” (priority 2019, dated 2025)

What was measured:
Solubility in water = assay type: physicochemical
Description: The solubility of cannabinoid target compounds in water can be substantially affected by pH and by temperature. […] At a temperature of 70 degrees Celsius or higher, and pH of 10 or higher, the solubility of CBDA in water is over 20 milligrams per milliliter. Conversely, at a temperature of 4 degrees Celsius or lower and pH 4 of or lower, the solubility of CBDA in water is below 20 micrograms per milliliter. Consequently, a process of washing a plant extract composition that contains CBDA with acidified water having a low temperature can be effective to remove hydrophilic components from the plant extract composition, without removing much CBDA from the plant extract composition.

[1] = Solubility in high-KB amide surfactant (DMDA / Met10u)
Description: (§1) Another example of a processing step is a step of combining a liquid that contains target compound with anti-solvent. When a target compound is contained in a liquid, e.g., an organic solvent or water (together, “solvents”), an anti-solvent may be used to reduce the capacity of the solvent to contain the target compound, thereby supersaturating the solvent with the target compound. […] The use of an antisolvent can increase the efficiency of purification of a target compound by increasing the saturation of one or more target compounds in a solvent to which the target compounds are added or present. The antisolvent occupies the binding potential of a primary solvent for a target compound, thereby reducing the ability of the primary solvent to contain (e.g., dissolve) the target compound.
As an alternative to an “oiling-out” technique followed by a crystallization step, target compound dissolved in an aqueous solution (at high temperature and alkaline pH) can be separated from the aqueous solution by causing the target compound to directly form a separate solid phase such as crystals within the solution, i.e., to “crystallize out” of the solution, without an “oiling-out” step. Depending on the composition of the aqueous solution, e.g., if the aqueous solution contains a sufficiently high concentration and purity of dissolved target compound, the target compound may be caused to form crystals directly by reducing pH and temperature of the aqueous solution. […] A method as described may include adding surfactant (e.g., ninol CAA) or an oil or a solvent or additive that encourages crystallization or alternatively, oiling out.

[2] = Solubility in mineral oil; conditions: under certain conditions
Description: as §1

[3] = Thermal stability (decarboxylation); assay type: physicochemical; conditions: saturated solution of CBDA in Met10u
Procedure: A saturated solution of CBDA in Met10u is prepared at 30C or preferably at 60C or higher, up to 100C or higher but below 130C. At a temperatures that is at least 130C, CBDA begins to lose its carboxylic moiety (decarboxylation) and become CBD. At temperatures above 130C CBD, not CBDA, could be separated if the desired end product is CBD.

SMILES	solubility of CBDA in water (Solubility in water; temperature of 4 degrees Celsius or lower, pH 4 or lower)	solubility of CBDA in water (Solubility in water; temperature of 70 degrees Celsius or higher, pH of 10 or higher)	solubility of CBDA in Met10u ([1]; at 60C)	solubility in DMDA ([1]; at 70C)	solubility of CBDA in Met10u ([1]; at OC)	solubility in mineral oil [2]	temperature at which CBDA begins to lose its carboxylic moiety (decarboxylation) and become CBD [3]	fraction of dissolved water in the high KB surfactant ([1]; water dissolved in surfactant of plant extract composition)
C=C(C)[C@@H]1CCC(C)=C[C@H]1c1c(O)cc(CCCCC)c(C(=O)O)c1O [CBDA]	below 20 micrograms per milliliter	over 20 milligrams per milliliter	100%	over 1000 mg/ml	1%	about 6 mg/ml	at least 130 C	–
C=CCCCCCCCC(=O)N(C)C [STEPOSOL™ MET-10U, N, N-dimethyl 9-decenamide]	–	–	–	–	–	–	–	15%
